Where a name gives a salt, the structure may show the parent alone.
Experiments:
tumour = assay: Dosimetry with regard to the tumour (MIRD programme, extrapolated to ^131I); details: for Effective period: extrapolated to 131I labelling; for Biological period: from biodistribution data
[1] = Elimination of the molecules: cumulative urinary and faecal excretion 0-72 hours; assay type: in vivo, mouse; details: for Faecal elimination 0-72 hours (Faeces) / Urinary and faecal elimination 0-72 hours (Total) / Urinary elimination 0-72 hours (Urine): cumulative excretion 0-72 hours; for Faecal elimination 0-72 hours (Faeces) / Urinary elimination 0-72 hours (Urine): mice in metabolic cages; for Urinary and faecal elimination 0-72 hours (Total): urine + faeces
[2] = test system: grafted B16 F0 murine melanoma tumour; assay: Biodistribution of the ^125I-labelled molecules in the melanoma-bearing mouse (autoradiography of whole-body sections); details: for Biodistribution, Mean, B 16: B 16 tumour
Experimental: The distribution of the radioactivity of the various compounds in the body (tumour and other organs) is quantified using an Ambis 4000 image analyzer on sections of whole animals. […] All the in vivo experimentation is carried out within the context defined by French legislation relating to animal experimentation.
The B16 F0 melanoma cells are provided by the ATCC and cultured in monolayers in culture medium (MEM, Invitrogen) supplemented with 10% foetal calf serum and antibiotics. The cultures are maintained by subculturing after trypsinization. The cells of the first passages are frozen and stored in liquid nitrogen. For the transplanting, the cells in culture at confluence are detached by trypsinization and washed with phosphate buffer (PBS).
The distribution of the radioactivity present in the sections is analyzed using an AMBIS 4000 analyzer (Scanalytics, CSPI, San Diego, Calif.), which is a proportional counter with a multiwire chamber validated and calibrated beforehand for the monitoring of iodine in the mouse. The measurements require acquisition times of 1000 minutes. […] The value of radioactivity per unit of surface area (cpm/mm^2) is converted to concentration (kBq/g) and expressed as percentage of the injected dose/g of tissue (% ID/g).

[3] = 1 H after i.v. administration, ^125I-labelled compound
[4] = 3 H after i.v. administration, ^125I-labelled compound
[5] = 6 H after i.v. administration, ^125I-labelled compound
[6] = 24 H after i.v. administration, ^125I-labelled compound
[7] = 72 H after i.v. administration, ^125I-labelled compound

CCN(CC)CCNC(=O)c1cc2c(I)cccc2s1.Cl [compound 13, N-(2-diethylaminoethyl)-4-iodobenzo[b]thiophene-2-carboxamide hydrochloride]
Effective period (tumour): 23.5 h | Biological period (tumour): 26.7 hours | Faecal elimination 0-72 hours (Faeces) [1]: 46.7% | Urinary and faecal elimination 0-72 hours (Total) [1]: 99.3% | Urinary elimination 0-72 hours (Urine) [1]: 52.6% | elimination route (in words) ([1]; urinary versus faecal, 0-72 hours): about equivalent | elimination kinetics from the body (in words) ([1]; urine and faeces, up to 72 hours): complete at 72 hours | Concentration of radioactivity, Ic (intestinal contents), Mean [2, 3]: 71.13 % ID/g | Concentration of radioactivity, Sc (stomach contents), Mean [2, 3]: 20.00 % ID/g | Concentration of radioactivity, blood (measured in the heart cavity), Mean [2, 3]: 1.37 % ID/g | Concentration of radioactivity, brain, Mean [2, 3]: 0.81 % ID/g | Concentration of radioactivity, kidney, Mean [2, 3]: 5.61 % ID/g | Concentration of radioactivity, liver, Mean [2, 3]: 2.21 % ID/g | Concentration of radioactivity, lungs, Mean [2, 3]: 3.69 % ID/g | Concentration of radioactivity, muscle (skeletal muscle), Mean [2, 3]: 0.77 % ID/g | Concentration of radioactivity, spleen, Mean [2, 3]: 3.88 % ID/g | Concentration of radioactivity, thyroid, Mean [2, 3]: 24.03 % ID/g | Concentration of radioactivity, uvea (pigmented tissues of the eye), Mean [2, 3]: 16.09 % ID/g | Concentration of radioactivity, B 16 (tumour), Mean [2, 4]: 9.98 % ID/g | Concentration of radioactivity, GB (gall bladder), Mean [2, 4]: 65.56 % ID/g | Concentration of radioactivity, Ic (intestinal contents), Mean [2, 4]: 73.02 % ID/g | Concentration of radioactivity, Sc (stomach contents), Mean [2, 4]: 5.93 % ID/g | Concentration of radioactivity, liver, Mean [2, 4]: 1.25 % ID/g | Concentration of radioactivity, thyroid, Mean [2, 4]: 67.21 % ID/g | Concentration of radioactivity, uvea (pigmented tissues of the eye), Mean [2, 4]: 19.51 % ID/g | Concentration of radioactivity, B 16 (tumour), Mean [2, 5]: 8.72 % ID/g | Concentration of radioactivity, Ic (intestinal contents), Mean [2, 5]: 37.70 % ID/g | Concentration of radioactivity, Sc (stomach contents), Mean [2, 5]: 18.77 % ID/g | Concentration of radioactivity, thyroid, Mean [2, 5]: 139.12 % ID/g | Concentration of radioactivity, uvea (pigmented tissues of the eye), Mean [2, 5]: 16.29 % ID/g | Concentration of radioactivity, B 16 (tumour), Mean [2, 6]: 7.28 % ID/g | Concentration of radioactivity, thyroid, Mean [2, 6]: 79.82 % ID/g | Concentration of radioactivity, uvea (pigmented tissues of the eye), Mean [2, 6]: 11.06 % ID/g | Concentration of radioactivity, B 16 (tumour), Mean [2, 7]: 1.73 % ID/g | Concentration of radioactivity, uvea (pigmented tissues of the eye), Mean [2, 7]: 9.22 % ID/g

CCN(CC)CCNC(=O)c1cc2c(I)cccc2cn1 [compound 39, N-(2-diethylaminoethyl)-5-iodoisoquinoline-3-carboxamide dihydrochloride]
Effective period (tumour): 43.6 h | Biological period (tumour): 56.3 hours | Faecal elimination 0-72 hours (Faeces) [1]: 21.2% | Urinary and faecal elimination 0-72 hours (Total) [1]: 71.1% | Urinary elimination 0-72 hours (Urine) [1]: 49.9% | Biodistribution, Mean, B 16 ([2]; 1 H): 7.27 | Biodistribution, Mean, B 16 ([2]; 3 H): 7.12 | Biodistribution, Mean, B 16 ([2]; 6 H): 7.92 | Biodistribution, Mean, B 16 ([2]; 24 H): 7.05 | Biodistribution, Mean, B 16 ([2]; 72 H): 3.13 | Biodistribution, Mean, Ic ([2]; 1 H): 42.97 | Biodistribution, Mean, Ic ([2]; 3 H): 68.64 | Biodistribution, Mean, Ic ([2]; 6 H): 29.16 | Biodistribution, Mean, Ic ([2]; 24 H): 1.70 | Biodistribution, Mean, Sc ([2]; 1 H): 23.01 | Biodistribution, Mean, Sc ([2]; 3 H): 19.05 | Biodistribution, Mean, Sc ([2]; 6 H): 28.44 | Biodistribution, Mean, Sc ([2]; 24 H): 0.75 | Biodistribution, Mean, blood ([2]; 1 H): 2.15 | Biodistribution, Mean, blood ([2]; 3 H): 2.65 | Biodistribution, Mean, blood ([2]; 6 H): 2.17 | Biodistribution, Mean, brain ([2]; 1 H): 0.30 | Biodistribution, Mean, brain ([2]; 3 H): 0.09 | Biodistribution, Mean, kidney ([2]; 1 H): 4.62 | Biodistribution, Mean, kidney ([2]; 3 H): 2.66 | Biodistribution, Mean, kidney ([2]; 6 H): 2.11 | Biodistribution, Mean, liver ([2]; 1 H): 3.86 | Biodistribution, Mean, liver ([2]; 3 H): 2.02 | Biodistribution, Mean, liver ([2]; 6 H): 1.54 | Biodistribution, Mean, liver ([2]; 24 H): 0.43 | Biodistribution, Mean, lungs ([2]; 1 H): 3.68 | Biodistribution, Mean, lungs ([2]; 3 H): 2.76 | Biodistribution, Mean, lungs ([2]; 6 H): 2.05 | Biodistribution, Mean, muscle ([2]; 1 H): 0.74 | Biodistribution, Mean, muscle ([2]; 3 H): 0.43 | Biodistribution, Mean, pancreas ([2]; 1 H): 2.39 | Biodistribution, Mean, spleen ([2]; 1 H): 2.83 | Biodistribution, Mean, spleen ([2]; 72 H): 1.62 | Biodistribution, Mean, thyroid ([2]; 1 H): 16.88 | Biodistribution, Mean, thyroid ([2]; 3 H): 35.71 | Biodistribution, Mean, thyroid ([2]; 6 H): 48.93 | Biodistribution, Mean, thyroid ([2]; 24 H): 88.65 | Biodistribution, Mean, thyroid ([2]; 72 H): 132.79 | Biodistribution, Mean, uvea ([2]; 1 H): 18.08 | Biodistribution, Mean, uvea ([2]; 3 H): 13.87 | Biodistribution, Mean, uvea ([2]; 6 H): 18.02 | Biodistribution, Mean, uvea ([2]; 24 H): 14.55 | Biodistribution, Mean, uvea ([2]; 72 H): 9.73

CCCN(CCC)CCCCNC(=O)c1ccc2cc(I)ccc2n1 [compound 49, N-(4-dipropylaminobutyl)-6-iodoquinoline-2-carboxamide dihydrochloride]
Effective period (tumour): 51.2 h | Biological period (tumour): 69.7 hours | Faecal elimination 0-72 hours (Faeces) [1]: 19.9% | Urinary and faecal elimination 0-72 hours (Total) [1]: 87.1% | Urinary elimination 0-72 hours (Urine) [1]: 67.2% | Biodistribution, Mean, B 16 ([2]; 1 H): 19.07 | Biodistribution, Mean, B 16 ([2]; 3 H): 20.34 | Biodistribution, Mean, B 16 ([2]; 6 H): 27.38 | Biodistribution, Mean, B 16 ([2]; 24 H): 18.28 | Biodistribution, Mean, B 16 ([2]; 72 H): 10.86 | Biodistribution, Mean, GB ([2]; 3 H): 50.82 | Biodistribution, Mean, GB ([2]; 6 H): 55.80 | Biodistribution, Mean, Ic ([2]; 1 H): 24.45 | Biodistribution, Mean, Ic ([2]; 3 H): 23.54 | Biodistribution, Mean, Ic ([2]; 6 H): 26.72 | Biodistribution, Mean, Ic ([2]; 24 H): 1.21 | Biodistribution, Mean, Sc ([2]; 1 H): 25.53 | Biodistribution, Mean, Sc ([2]; 3 H): 24.89 | Biodistribution, Mean, Sc ([2]; 6 H): 22.21 | Biodistribution, Mean, Sc ([2]; 24 H): 2.16 | tumour concentration, times higher than with BZA ([2]; at 72 hours (FIG. 1B)): 14 times | Biodistribution, Mean, blood ([2]; 1 H): 3.31 | Biodistribution, Mean, blood ([2]; 3 H): 3.47 | Biodistribution, Mean, blood ([2]; 6 H): 2.50 | tumour concentration, % of the injected dose per gram of tumour ([2]; from the first hour): 19.1 % ID/g | Biodistribution, Mean, kidney ([2]; 1 H): 18.29 | Biodistribution, Mean, kidney ([2]; 3 H): 13.10 | Biodistribution, Mean, kidney ([2]; 6 H): 7.98 | Biodistribution, Mean, liver ([2]; 1 H): 13.79 | Biodistribution, Mean, liver ([2]; 3 H): 7.77 | Biodistribution, Mean, liver ([2]; 6 H): 3.89 | Biodistribution, Mean, lungs ([2]; 1 H): 8.33 | Biodistribution, Mean, lungs ([2]; 3 H): 6.88 | Biodistribution, Mean, lungs ([2]; 6 H): 3.34 | Biodistribution, Mean, muscle ([2]; 1 H): 2.00 | Biodistribution, Mean, muscle ([2]; 3 H): 1.41 | Biodistribution, Mean, muscle ([2]; 6 H): 0.45 | Biodistribution, Mean, pancreas ([2]; 1 H): 21.47 | Biodistribution, Mean, pancreas ([2]; 3 H): 9.71 | Biodistribution, Mean, spleen ([2]; 1 H): 18.88 | Biodistribution, Mean, spleen ([2]; 3 H): 16.71 | Biodistribution, Mean, thyroid ([2]; 1 H): 28.75 | Biodistribution, Mean, thyroid ([2]; 3 H): 125.51 | Biodistribution, Mean, thyroid ([2]; 6 H): 16.38 | Biodistribution, Mean, thyroid ([2]; 72 H): 53.26 | Biodistribution, Mean, uvea ([2]; 1 H): 21.04 | Biodistribution, Mean, uvea ([2]; 3 H): 31.76 | Biodistribution, Mean, uvea ([2]; 6 H): 28.78 | Biodistribution, Mean, uvea ([2]; 24 H): 19.22 | Biodistribution, Mean, uvea ([2]; 72 H): 19.78

Reference: US20100061928A1, “LABELLED ANALOGUES OF HALOBENZAMIDES AS RADIOPHARMACEUTICALS” (Institut National De La Sante et De La Recherche Medicale …, priority 2006, published 2010)
